Measurements from patent US20060094783A1 (Tava Pharmaceutical Industries, Ltd., priority 1990, published 2006).
“And” between values parts separate entries of the source, which are not always exact repeats. Equal entries are not always repeated. Structures can show the parent of a compound that is named as a salt. Where two headings read alike, the source gives them in different places.

Columns and labels:
[1] = system: maximal electroshock seizures in mice; assay: Maximal electroshock test (MES test) in mice; assay type: in vivo, mouse; conditions: 100 mg/kg
Excerpt: The MES test is a classical model to indicate efficacy for partial and generalized seizures in humans. The agents' mechanism of action is via their ability to prevent the spread of seizures. Some agents, however, that prevent seizure spread have the side effect of lowering seizure threshold. These agents therefore have both proconvulsive and anticonvulsive side effects.

[2] = system: MCA-occluded Wistar rats
Experimental: (§1) Middle cerebral artery occlusion (MCAO) in the rat. […] Male Wistar rats (Olac England-Jerusalem) 300-400 g each were anesthetized with a solution of Equitesine administered i.p. at a dose of 3 mL/kg. Equitesine consists of 13.5 mL sodium pentothal solution (60 mg/mL), 3.5 g chloral hydrate, 1.75 g MgSO4, 33 mL propylene glycol, 8.3 mL absolute alcohol made up to 83 mL with distilled water. […] In order to expose the left middle cerebral artery, a cut was made in the temporal muscle. The tip of the coronoid process of mandible was excised as well and removed with a fine rongeur. Craniectomy was made with a dental drill at the junction between the median wall and the roof of the inferotemporal fossa. The dura matter was opened carefully using a 27 gauge needle. The MCA was permanently occluded by microbipolar coagulation at low power setting, beginning 2-3 mm medial to the olfactory tract between its cortical branch to the rhinal cortex and the laterate striate arteries.
After coagulation, the MCA was severed with microscissors and divided to ensure complete occlusion. Following this, the temporalis muscle was sutured and laid over the craniectomy site. The skin was closed with a running 3-0 silk suture. A shad craniectomy operation was performed on a parallel group of rats, but without cauterization of the MCA. During the entire surgical operation (20-25 min) in either group, body temperature was maintained at 37 to 38° C. by means of a body-temperature regulator (Kyoristsu, Japan) consisting of a self-regulating heating pad connected to a rectal thermistor. […] The volume of brain tissue incurring damage following ischemia was determined.
1 mg/kg immediately after surgery.
0.5 mg/kg 2 hours after surgery
Then multislices T2-weighted images (3000/80) were acquired (5 contiguous slices, 3 mm thick).
The following MRI parameters were determined for each group of rats:
The use of contiguous slices allows the conversion-of area units into volume units by simply multiplying the area value by the slice thickness

[3] = system: neonatal rat cerebellum cell cultures; conditions: for Percent Protection: after subtraction of solvent effect
Experimental: Procedures: cultures of mechanically dissociated neonatal rat cerebellum. […] The cerebella are then dissociated after 20-25 passages through a sterile 13 gauge, 10 cm long stainless steel needle attached to a 5 ml syringe with an inserted 45 μm pore size nylon sieve. The dissociated cells are centrifuged at 200 g for 5 minutes, the supernatant discarded and the cells resuspended in enriched medium. The cell viability is determined by the trypan blue exclusion test. […] After 4 days in culture, the media are replaced with media containing the desired test compounds. Experiments are done in duplicate and repeated 2 or 3 times. […] Nerve cell survival is evaluated by phase contrast microscopy and trypan blue staining after 24 h.
Values, expressed as the percent of untreated controls, represent the average of 2 experiments run in duplicate for culture experiments, and the mean±SEM of 4 animals for ischemia. The percent protection value is the effect of the test compound after subtraction of the solvent effect.

[4] = system: haloperidol-induced catalepsy in mice; assay: Reversal of haloperidol-induced catalepsy in mice; assay type: in vivo, mouse; conditions: peak effect at 7.5-10 mg/kg, 3 hours after haloperidol
Experimental: All drugs were administered i.p. in a volume of 0.2 mL. Two hours later, haloperidol was injected s.c. at a dose of 6 mg/kg in a volume of 0.1-0.2 mL. Motor coordination tests were made at 3 hours after giving haloperidol, that is, 5 hours after administering the presumed protective drugs.
Motor coordination tests and rigidity were quantified according to three different parameters: (a) ability to walk the length of a horizontal rod, 80 cm-long; (b) ability to climb down, face down, a vertical rod, 80 cm-long; (c) duration of immobility in an unnatural sitting posture whereby the abdomen of the mouse is pressed against a “wall.” Full performance as in haloperidol-untreated mice is given the score of 4 in each test, or a total of 12 in all tests. Poor performance is given a score from 1 to 3.

[5] = system: crush-injured rat optic nerve; conditions: rats, 2 mg/kg i.p. immediately after optic nerve crush
Excerpt: At short terms, metabolic measurements were monitored in terms of the mitochondrial NADH/NAD ratio, which depends on the activity of the electron transport system, and thus indicate levels of energy production.
Monitoring of the intramitochondrial NADH redox state is based on the fact that NADH, unlike the oxidized form NAD^+, fluoresces when illuminated at […]. A flexible Y-shaped bundle of optic fibers (light guide) was used to transmit the light to and from the optic nerve. […] Changes in the reflected light were correlated with changes in tissue absorption caused by hemodynamic effects and with movements of the optic nerve secondary to alterations in arterial blood pressure and nerve volume.
Animal utilization was in accord with the ARVO Resolution on the use of animals in research. […] With the animal's head held in place by a head holder, a lateral canthotomy was performed under a binocular operating microscope and the conjuctiva was incised lateral to the cornea.

[6] = system: MCA-occluded Wistar rats; remark: listed apart in the source
Experimental: as §1
After coagulation, the MCA was severed with microscissors and divided to ensure complete occlusion. Following this, the temporalis muscle was sutured and laid over the craniectomy site. The skin was closed with a running 3-0 silk suture. A shad craniectomy operation was performed on a parallel group of rats, but without cauterization of the MCA. […] The volume of brain tissue incurring damage following ischemia was determined. […]

[7] = system: Metrazol seizure threshold in mice; assay: Timed Intravenous Infusion of Metrazol test; assay type: in vivo, mouse; conditions: 141 mg/kg
Experimental: Timed Intravenous Infusion of Metrazol Test. This test measures the minimal seizure threshold of each animal. Metrazol is infused at 0.185 mg/ml into the tail veins of mice.

[8] = system: MPTP-induced striatal DA and DOPAC depletions in mice; assay: Suppression of MPTP-induced dopaminergic toxicity (striatal DA and DOPAC); assay type: in vivo, mouse; conditions: PAI […] i.p., deprenyl 5 mg/kg i.p., 5 days
[9] = system: amphetamine-induced stereotype behavior in senescent rats; assay: Amphetamine-induced stereotype behavior in senescent rats; assay type: in vivo, rat; conditions: control senescent rats, 0.5 mg/kg/day in drinking water, amphetamine 0.5 mg/kg s.c.
Experimental: 45 minutes later, lateral head movements were counted.

[10] = system: passive avoidance response in young rats; assay: Passive avoidance test in young rats (memory); assay type: in vivo, rat; conditions: Protocol B (0.5 mg/kg/day), anoxia-lesioned rats
Excerpt: The effect of R(+)-PAI and S(−)-PAI on the improvement or restoration of memory was investigated in the passive avoidance test. If the drug is effective, it increases the latency of response to enter a dark compartment or chamber where an electroshock has been experienced earlier by the rat being tested. The latency of the maximal response is 300 seconds.

[11] = system: anoxia-induced hyperactive syndrome in juvenile rats; assay: Anoxia-induced hyperactive syndrome in juvenile rats; assay type: in vivo, rat; conditions: 0.5 mg/kg/day to nursing mother
Experimental: Anoxia was performed on rat pups on the first post-natal day. They were placed in a glass chamber and exposed to 100% nitrogen for 25 minutes. They were resuscitated by intermittent massage softly applied to the chest and then returned to their respective mothers. Control rats received the same treatment but with air instead of nitrogen.
Locomotion was measured in 6 fully computerized cages (28×28 cm) by recording the number of crossings over a given period of time. Crossings of grid infrared beams at 4-cm intervals initiated electrical impulses which fed a counter. Recordings of motor activity were made at the ages of 15 and 20 days, over a period of 15 minutes.

[12] = pretreatment 1 h before MPTP 30 mg/kg s.c.

C#CCN[C@@H]1CCc2ccccc21.CS(=O)(=O)O [(R)-PAI Mesylate, R-(+)-N-propargyl-1-aminoindan mesylate]
mice protected [1]: one out of three | Infarct size, MEAN ± SD ([2]; Table 21, n=9, MRI T2 scan 48 h after MCA-O, 1.0, 0.5, 1.0 mg/kg ip at 0, 2, 24 hrs): 163.5 ± 43.9 mm^3 | reduction of infarct size ([2]; Table 21, n=9 vs 10 untreated): [R](+)PAI Mesylate reduces infarct size by 40% significantly | Infarct size, MEAN + SD ([2]; Table 22, n=5, MRI 48 hrs after MCA-Occlusion): 172 ± 28 mm^3 | reduction of infarct size ([2]; Table 22, n=5 vs 6 untreated MCAO rats, mesylate): 36% and 36.3% | infarct size as % of that in untreated animals ([2]; n=9 vs 10 untreated): about 60% | Surviving Cells (percent of untreated controls) ([3]; 0.01 μM + NMDA): 12 | Percent Protection ([3]; 0.01 μM + NMDA): 2 | Surviving Cells (percent of untreated controls) ([3]; 1.00 μM + NMDA): 22 | Percent Protection ([3]; 1.00 μM + NMDA): 12 | Surviving Cells (percent of untreated controls) ([3]; 10.00 μM + NMDA): 37 | peak activity score as % of saline control [4]: 94% | effect on injury-induced reduction in energy production (NADH response to anoxia) [5]: blocked the injury-induced reduction in energy production | Neurological Score, MEAN + SD ([6]; n=5, 24 hrs after MCA-Occlusion, scale 0-13): 2.78 ± 1.3 | reduction of neurological score ([6]; n=5 vs 6 untreated MCAO rats, mesylate): 54% and 53.7%

C#CCN[C@H]1CCc2ccccc21 [(S)-PAI Mesylate]
mice protected [1]: three out of three | effect on time to first focal seizure and onset of clonus (proconvulsive activity) [7]: reduces the time

C#CCN[C@H]1CCc2ccccc21 [S(−)PAI]
striatal DA ([8]; drug alone): 174.0 ± 4.8 ng/mg protein | striatal DOPAC ([8]; drug alone): 7.5 ± 0.2 ng/mg protein | striatal DA [8, 12]: 53.4 ± 6.9 ng/mg protein | striatal DOPAC [8, 12]: 7.0 ± 0.6 ng/mg protein | Stereotype Behavior Rating (lateral head movements in 1 minute) [9]: 94 ± 18 | latency After Electroshock [10]: 112 ± 112 s | latency Before Electroshock [10]: 48 ± 19 s | numbers of crossings of infrared beam grid over 15 minutes ([11]; 15-day old anoxia-lesioned rats): 334 ± 196(5) | numbers of crossings of infrared beam grid over 15 minutes ([11]; 20-day old anoxia-lesioned rats): 778 ± 232(6)
